The target of assay [1] is N neuronal alpha 4beta 2 (h) (Homo sapiens, UniProt P17787+P43681). Nature of the assay: biochemical. Conditions: read-out: % Inhibition of Specific Binding.
The target in assay [2] is Ubiquitin carboxyl-terminal hydrolase 7 (Homo sapiens, UniProt Q93009). Nature of the assay: biochemical. Particulars: read-out: Percentage inhibition (%).
Assay [3] addresses Ubiquitin carboxyl-terminal hydrolase 10 (Homo sapiens, UniProt Q14694). Kind of assay: biochemical. Conditions: read-out: Percentage inhibition (%).
The target in the next assay is 5-HT2B (h) (Homo sapiens, UniProt P41595). Nature of the assay: biochemical. Conditions: read-out: % Inhibition of Specific Binding.
The target in a further assay is Cathepsin V (Homo sapiens, UniProt O60911). Nature of the assay: biochemical. Particulars: read-out: Percentage inhibition (%).
Sequence of Cathepsin V (O60911 114-334, species assumed): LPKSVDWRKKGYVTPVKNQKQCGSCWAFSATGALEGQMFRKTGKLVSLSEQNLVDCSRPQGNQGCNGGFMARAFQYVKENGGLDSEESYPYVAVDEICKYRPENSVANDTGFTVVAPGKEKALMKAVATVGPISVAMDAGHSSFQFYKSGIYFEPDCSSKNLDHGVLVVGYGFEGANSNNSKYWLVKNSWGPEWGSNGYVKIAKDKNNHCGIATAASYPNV
The target in a further assay is CCK1 (CCKA) (h) (Homo sapiens, UniProt P32238). Kind of assay: biochemical. Particulars: read-out: % Inhibition of Specific Binding.
Sequence of CCK1 (CCKA) (h) (P32238 whole entry): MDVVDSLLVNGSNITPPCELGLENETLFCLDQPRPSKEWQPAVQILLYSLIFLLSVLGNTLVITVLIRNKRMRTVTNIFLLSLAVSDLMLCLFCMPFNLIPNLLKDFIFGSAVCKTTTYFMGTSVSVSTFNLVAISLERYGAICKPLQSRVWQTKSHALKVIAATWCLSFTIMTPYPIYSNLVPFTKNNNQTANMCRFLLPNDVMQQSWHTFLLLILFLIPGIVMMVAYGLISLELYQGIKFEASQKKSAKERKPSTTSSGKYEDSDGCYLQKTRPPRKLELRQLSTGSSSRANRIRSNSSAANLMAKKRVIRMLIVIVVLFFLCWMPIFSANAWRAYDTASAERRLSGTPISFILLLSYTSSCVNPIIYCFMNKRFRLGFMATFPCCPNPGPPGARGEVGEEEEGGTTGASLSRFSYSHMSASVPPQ
In another assay the target is D2S (h) (Homo sapiens, UniProt P14416). Nature of the assay: biochemical. Particulars: read-out: % Inhibition of Specific Binding.
Sequence of D2S (h) (P14416 1-414 isoform P14416-2): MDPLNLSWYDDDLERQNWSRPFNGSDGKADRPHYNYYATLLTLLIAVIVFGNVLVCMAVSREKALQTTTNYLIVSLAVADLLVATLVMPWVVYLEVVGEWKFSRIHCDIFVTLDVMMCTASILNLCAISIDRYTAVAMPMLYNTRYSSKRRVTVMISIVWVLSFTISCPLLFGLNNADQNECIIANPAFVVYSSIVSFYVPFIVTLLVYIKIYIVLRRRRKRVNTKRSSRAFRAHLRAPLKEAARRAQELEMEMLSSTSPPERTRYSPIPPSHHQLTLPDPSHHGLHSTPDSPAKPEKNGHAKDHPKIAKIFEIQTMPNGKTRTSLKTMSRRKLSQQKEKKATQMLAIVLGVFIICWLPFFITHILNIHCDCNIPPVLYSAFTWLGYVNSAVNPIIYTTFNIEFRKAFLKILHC
For assay [4], the target named is Ubiquitin carboxyl-terminal hydrolase 14 (Homo sapiens, UniProt P54578). Kind of assay: biochemical. Conditions: read-out: Percentage inhibition (%).
Sequence of Ubiquitin carboxyl-terminal hydrolase 14 (P54578 whole entry): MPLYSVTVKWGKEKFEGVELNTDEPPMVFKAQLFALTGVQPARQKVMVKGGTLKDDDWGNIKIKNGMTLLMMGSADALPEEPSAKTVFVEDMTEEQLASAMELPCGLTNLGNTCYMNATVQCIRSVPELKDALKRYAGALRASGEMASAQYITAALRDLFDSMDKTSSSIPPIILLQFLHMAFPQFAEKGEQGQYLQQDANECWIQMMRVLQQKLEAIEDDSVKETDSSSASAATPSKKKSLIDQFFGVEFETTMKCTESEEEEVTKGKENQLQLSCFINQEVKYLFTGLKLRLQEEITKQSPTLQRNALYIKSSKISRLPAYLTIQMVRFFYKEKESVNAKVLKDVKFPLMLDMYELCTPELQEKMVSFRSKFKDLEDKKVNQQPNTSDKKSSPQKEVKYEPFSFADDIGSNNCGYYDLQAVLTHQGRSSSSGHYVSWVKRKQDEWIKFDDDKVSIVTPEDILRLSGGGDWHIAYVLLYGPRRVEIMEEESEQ
In assay [5] the target is T1, Ubiquitin carboxyl-terminal hydrolase 5 (Homo sapiens, UniProt P45974).
T1 sequence (P45974 1-858): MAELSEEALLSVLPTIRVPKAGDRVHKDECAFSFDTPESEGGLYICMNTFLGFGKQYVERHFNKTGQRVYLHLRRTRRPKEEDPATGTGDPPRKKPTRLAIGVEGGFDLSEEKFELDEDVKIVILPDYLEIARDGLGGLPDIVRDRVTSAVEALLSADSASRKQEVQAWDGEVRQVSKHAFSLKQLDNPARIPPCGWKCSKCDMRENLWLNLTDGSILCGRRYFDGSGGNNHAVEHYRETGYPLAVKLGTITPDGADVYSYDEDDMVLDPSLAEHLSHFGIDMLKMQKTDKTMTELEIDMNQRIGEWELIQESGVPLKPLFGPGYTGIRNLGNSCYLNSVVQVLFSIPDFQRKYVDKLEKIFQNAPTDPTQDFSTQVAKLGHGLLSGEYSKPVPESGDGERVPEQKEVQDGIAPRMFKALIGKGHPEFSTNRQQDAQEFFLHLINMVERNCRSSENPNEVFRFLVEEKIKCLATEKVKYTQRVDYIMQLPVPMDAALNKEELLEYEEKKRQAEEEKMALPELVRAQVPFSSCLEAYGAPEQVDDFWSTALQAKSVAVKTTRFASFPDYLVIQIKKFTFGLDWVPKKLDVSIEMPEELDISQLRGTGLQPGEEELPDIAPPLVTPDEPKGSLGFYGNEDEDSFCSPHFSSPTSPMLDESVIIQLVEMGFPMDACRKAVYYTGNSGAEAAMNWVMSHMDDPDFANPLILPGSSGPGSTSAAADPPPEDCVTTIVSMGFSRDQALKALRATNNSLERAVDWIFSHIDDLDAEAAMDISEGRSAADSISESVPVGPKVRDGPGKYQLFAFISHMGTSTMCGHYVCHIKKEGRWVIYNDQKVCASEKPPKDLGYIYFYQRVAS
Nature of the assay: biochemical. Particulars: read-out: Percentage inhibition (%).

The next assay addresses T2, A20 (Homo sapiens, UniProt P21580).
T2 sequence (P21580 1-790): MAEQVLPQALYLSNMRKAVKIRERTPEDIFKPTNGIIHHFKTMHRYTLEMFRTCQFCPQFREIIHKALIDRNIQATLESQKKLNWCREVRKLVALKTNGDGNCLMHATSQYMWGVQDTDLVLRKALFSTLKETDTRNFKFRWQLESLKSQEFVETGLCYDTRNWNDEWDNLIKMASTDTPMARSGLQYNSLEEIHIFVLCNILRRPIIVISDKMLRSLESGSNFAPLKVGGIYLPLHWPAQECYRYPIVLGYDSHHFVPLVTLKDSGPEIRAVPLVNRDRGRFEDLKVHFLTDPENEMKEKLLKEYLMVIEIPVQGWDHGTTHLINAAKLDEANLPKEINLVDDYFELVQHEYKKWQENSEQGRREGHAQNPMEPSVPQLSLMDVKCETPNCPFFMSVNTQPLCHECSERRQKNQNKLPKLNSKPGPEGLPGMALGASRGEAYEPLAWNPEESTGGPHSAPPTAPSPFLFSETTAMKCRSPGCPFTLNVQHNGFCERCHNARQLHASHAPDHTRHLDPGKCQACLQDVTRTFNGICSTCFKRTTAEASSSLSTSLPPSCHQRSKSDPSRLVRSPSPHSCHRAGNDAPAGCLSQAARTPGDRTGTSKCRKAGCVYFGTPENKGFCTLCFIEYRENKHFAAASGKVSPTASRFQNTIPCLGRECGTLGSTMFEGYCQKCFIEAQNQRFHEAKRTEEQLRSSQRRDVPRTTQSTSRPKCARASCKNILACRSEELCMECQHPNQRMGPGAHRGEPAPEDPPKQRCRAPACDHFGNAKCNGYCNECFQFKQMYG
Nature of the assay: biochemical. Particulars: read-out: Percentage inhibition (%).

The target of another assay is dopamine transporter (h) (Homo sapiens, UniProt Q01959). Kind of assay: biochemical. Conditions: read-out: % Inhibition of Specific Binding.
Assay [6] deals with T3, Ubiquitin carboxy-terminal hydrolase L3 (Homo sapiens, UniProt P15374).
T3 sequence (P15374 1-230): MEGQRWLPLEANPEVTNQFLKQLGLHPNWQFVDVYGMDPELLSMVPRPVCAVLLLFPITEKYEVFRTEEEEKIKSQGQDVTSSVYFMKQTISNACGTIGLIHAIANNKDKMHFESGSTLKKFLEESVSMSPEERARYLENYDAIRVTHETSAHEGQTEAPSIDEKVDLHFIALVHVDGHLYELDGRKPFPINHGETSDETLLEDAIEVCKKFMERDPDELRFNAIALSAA
Nature of the assay: biochemical. Conditions: read-out: Percentage inhibition (%).

Another assay deals with Na+ channel (site 2). Kind of assay: SafetyScreen44 Na+ channel (site 2) (antagonist radioligand). It is filed as binding. Conditions: 10 μM.
A further assay deals with 5-HT3 (h) (Homo sapiens, UniProt P46098). Nature of the assay: biochemical. Particulars: read-out: % Inhibition of Specific Binding.
Sequence of 5-HT3 (h) (P46098 24-478): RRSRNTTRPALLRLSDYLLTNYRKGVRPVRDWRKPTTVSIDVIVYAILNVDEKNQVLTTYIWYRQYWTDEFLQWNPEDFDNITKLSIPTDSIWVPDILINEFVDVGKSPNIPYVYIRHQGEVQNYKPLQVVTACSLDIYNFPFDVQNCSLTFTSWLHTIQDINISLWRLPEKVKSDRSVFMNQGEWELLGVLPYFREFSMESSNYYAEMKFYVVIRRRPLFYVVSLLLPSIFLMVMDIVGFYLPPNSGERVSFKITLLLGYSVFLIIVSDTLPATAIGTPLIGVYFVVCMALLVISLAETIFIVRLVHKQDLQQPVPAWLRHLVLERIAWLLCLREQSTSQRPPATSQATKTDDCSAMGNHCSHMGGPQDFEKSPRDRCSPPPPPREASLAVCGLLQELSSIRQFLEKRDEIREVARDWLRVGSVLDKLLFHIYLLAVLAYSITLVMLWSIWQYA

Numbered stars: 1 amine (or outer) side, 2 acyl side, 3 side chain; on linkers, the order of the positions; unused ones are H or OH. Bridge positions count the residues as written; N and C are the ends. Peptide text beside a SMILES is read from it. * marks the point of attachment. X1 = O=C(O)CN1CCN(CC(=O)O)CCN(CC(=O)N2CCN(Cc3cc(C[*:1])cc(C[*:2])c3)CC2)CCN(CC(=O)O)CC1; Hexanoyl = CCCCCC(=O)*

Sequence of Ubiquitin carboxyl-terminal hydrolase 7 (Q93009 whole entry): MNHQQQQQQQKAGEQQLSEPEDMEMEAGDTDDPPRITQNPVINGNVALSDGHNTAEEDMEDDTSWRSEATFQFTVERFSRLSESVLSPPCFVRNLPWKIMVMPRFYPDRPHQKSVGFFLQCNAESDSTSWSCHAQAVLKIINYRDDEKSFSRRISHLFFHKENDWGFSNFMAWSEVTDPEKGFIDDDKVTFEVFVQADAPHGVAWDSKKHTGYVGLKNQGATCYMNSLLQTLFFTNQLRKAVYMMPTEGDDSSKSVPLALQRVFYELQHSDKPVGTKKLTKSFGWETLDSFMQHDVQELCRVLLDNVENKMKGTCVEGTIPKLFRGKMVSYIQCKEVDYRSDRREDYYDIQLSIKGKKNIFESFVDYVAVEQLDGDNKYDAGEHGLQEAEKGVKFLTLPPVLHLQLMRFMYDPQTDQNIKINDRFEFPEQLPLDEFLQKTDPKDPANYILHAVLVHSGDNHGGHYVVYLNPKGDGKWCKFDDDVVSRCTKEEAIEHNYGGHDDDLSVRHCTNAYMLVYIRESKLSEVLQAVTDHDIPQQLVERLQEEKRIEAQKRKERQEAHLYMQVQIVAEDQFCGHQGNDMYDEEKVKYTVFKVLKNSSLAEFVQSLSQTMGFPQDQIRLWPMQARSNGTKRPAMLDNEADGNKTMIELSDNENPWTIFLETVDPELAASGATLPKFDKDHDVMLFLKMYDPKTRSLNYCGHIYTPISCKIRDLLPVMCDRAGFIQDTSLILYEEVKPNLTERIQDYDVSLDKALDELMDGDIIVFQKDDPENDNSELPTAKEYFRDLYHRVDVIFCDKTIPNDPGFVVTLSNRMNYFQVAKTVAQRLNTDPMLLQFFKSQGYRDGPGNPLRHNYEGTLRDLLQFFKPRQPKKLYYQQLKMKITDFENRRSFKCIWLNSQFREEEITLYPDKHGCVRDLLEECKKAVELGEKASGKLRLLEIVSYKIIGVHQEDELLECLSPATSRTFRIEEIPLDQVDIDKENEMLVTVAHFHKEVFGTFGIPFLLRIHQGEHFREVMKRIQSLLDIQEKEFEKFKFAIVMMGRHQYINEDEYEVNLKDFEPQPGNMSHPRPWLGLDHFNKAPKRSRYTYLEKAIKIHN
Sequence of Ubiquitin carboxyl-terminal hydrolase 10 (Q14694 whole entry): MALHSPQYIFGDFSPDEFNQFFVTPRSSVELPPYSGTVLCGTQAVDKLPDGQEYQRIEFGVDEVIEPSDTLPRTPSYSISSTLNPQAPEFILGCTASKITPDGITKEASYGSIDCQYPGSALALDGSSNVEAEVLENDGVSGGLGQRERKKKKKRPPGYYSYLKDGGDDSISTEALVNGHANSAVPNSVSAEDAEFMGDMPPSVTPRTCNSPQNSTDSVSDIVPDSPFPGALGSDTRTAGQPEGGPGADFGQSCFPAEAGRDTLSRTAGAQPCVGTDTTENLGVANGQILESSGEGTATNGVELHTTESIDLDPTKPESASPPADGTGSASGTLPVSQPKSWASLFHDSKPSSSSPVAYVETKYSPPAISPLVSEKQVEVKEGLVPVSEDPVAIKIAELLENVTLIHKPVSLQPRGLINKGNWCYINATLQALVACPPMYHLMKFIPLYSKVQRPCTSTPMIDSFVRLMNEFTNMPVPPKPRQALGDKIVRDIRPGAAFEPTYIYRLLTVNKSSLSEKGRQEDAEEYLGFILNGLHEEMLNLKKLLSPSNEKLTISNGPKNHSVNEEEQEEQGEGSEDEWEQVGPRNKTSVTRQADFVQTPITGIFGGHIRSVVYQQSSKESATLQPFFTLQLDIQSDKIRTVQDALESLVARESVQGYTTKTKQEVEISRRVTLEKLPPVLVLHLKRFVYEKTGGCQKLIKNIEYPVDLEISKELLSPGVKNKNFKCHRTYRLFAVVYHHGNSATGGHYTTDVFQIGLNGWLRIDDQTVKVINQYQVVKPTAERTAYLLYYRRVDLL
Sequence of N neuronal alpha 4beta 2 (h) (P17787 26-502): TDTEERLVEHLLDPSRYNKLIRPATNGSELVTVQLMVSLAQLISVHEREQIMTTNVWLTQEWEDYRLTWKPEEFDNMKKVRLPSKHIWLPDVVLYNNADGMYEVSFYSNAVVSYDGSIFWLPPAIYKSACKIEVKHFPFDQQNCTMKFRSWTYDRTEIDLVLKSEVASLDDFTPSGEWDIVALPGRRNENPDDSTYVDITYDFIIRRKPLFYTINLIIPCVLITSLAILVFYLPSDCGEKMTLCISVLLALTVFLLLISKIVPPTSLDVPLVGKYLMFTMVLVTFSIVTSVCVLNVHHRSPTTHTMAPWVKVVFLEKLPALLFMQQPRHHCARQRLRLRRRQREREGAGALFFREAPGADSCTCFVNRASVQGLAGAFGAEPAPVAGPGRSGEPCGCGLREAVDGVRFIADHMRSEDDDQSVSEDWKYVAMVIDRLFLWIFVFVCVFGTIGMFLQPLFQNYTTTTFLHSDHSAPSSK
Sequence of N neuronal alpha 4beta 2 (h) (P43681 29-627): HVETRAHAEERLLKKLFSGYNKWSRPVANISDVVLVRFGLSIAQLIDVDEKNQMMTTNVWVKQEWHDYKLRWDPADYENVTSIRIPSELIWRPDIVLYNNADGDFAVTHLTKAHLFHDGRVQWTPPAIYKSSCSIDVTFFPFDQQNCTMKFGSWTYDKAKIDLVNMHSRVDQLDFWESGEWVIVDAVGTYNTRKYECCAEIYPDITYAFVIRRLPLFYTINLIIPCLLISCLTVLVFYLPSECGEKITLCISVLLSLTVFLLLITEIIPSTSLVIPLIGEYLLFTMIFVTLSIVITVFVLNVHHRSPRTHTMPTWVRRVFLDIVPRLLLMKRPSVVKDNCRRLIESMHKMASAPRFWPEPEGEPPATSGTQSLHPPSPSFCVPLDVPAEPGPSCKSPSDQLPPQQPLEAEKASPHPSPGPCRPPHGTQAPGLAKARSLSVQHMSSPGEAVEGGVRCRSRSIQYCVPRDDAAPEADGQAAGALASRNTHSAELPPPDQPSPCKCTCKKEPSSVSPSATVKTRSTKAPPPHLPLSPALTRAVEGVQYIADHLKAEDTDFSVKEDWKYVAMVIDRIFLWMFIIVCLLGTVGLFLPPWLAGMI

By inhibition is commonly meant the relative decrease from the control value, in per cent. Consider `CCCCCC(=O)N[C@H]1CSCc2cc(cc(CN3CCN(C(=O)CN4CCN(CC(=O)O)CCN(CC(=O)O)CCN(CC(=O)O)CC4)CC3)c2)CSC[C@@H](C(=O)N[C@@H](CC(=O)O)C(N)=O)NC(=O)[C@H](Cc2ccccc2)NC(=O)[C@H](CCC(N)=O)NC(=O)[C@H]([C@@H](C)O)NC(=O)[C@@H]2CCCN2C(=O)[C@@H]2CCCN2C1=O` [Compound 3BP-3407, Hex-[Cys(tMeBn(DOTA-PP))-Pro-Pro-Thr-Gln-Phe-Cys]-Asp-NH2] (Hexanoyl-CPPTQFCD-NH2; linker 1-7 via X1), for which the inhibition at 10 µM in assay [1] was -8%; in [2] it was 5%; in assay [3] it was 5%; at 5-HT2B (h), 2%; at Cathepsin V, -18%; at CCK1 (CCKA) (h), 24%. Moreover, the inhibition at 10 µM is 15% on D2S (h); 5% in [4]; 46% in assay [5]; -4% at A20; 12% on dopamine transporter (h); 14% in [6]. The inhibition at 10 µM on 5-HT3 (h) turned out to be 2%. In addition, the inhibition at 1 µM is 5% in [2]; -2% in assay [3]; 1% on Cathepsin V; -1% in [4]; 3% in assay [5]; 2% at A20. Besides, the inhibition at 1 µM in [6] was -1%. The “% Inhibition of Specific Binding” value in the assay on Na+ channel (site 2) is −7%.

As for `CCCCCC(=O)N[C@H]1CSCc2cc(CSCCNC(=O)CN3CCN(CC(=O)O)CCN(CC(=O)O)CCN(CC(=O)O)CC3)cc(c2)CSC[C@@H](C(=O)O)NC(=O)[C@H](Cc2ccccc2)NC(=O)[C@H](CCC(N)=O)NC(=O)[C@H]([C@@H](C)O)NC(=O)[C@@H]2CCCN2C(=O)[C@@H]2CCCN2C1=O` [Compound 3BP-3554, Hex-[Cys(tMeBn(DOTA-AET))-Pro-Pro-Thr-Gln-Phe-Cys]-OH], the inhibition at 10 µM in [1] is -2%; in assay [2], 1%; in [3] it was -1%; at 5-HT2B (h) it was 3%; at Cathepsin V it was -1%; at CCK1 (CCKA) (h), 16%. The inhibition at 10 µM was -7% on D2S (h); 2% in [4]; -2% in assay [5]; 0% on A20; 7% at dopamine transporter (h); 0% in [6]. Besides, the inhibition at 10 µM on 5-HT3 (h) was determined as 4%. Further, the inhibition at 1 µM in assay [2] was 1%; in [3], 1%; on Cathepsin V, -1%; in [4], 1%; in assay [5], -4%; at A20, 1%. In [6], the inhibition at 1 µM amounted to 0%. Moreover, the “% Inhibition of Specific Binding” value in the assay on Na+ channel (site 2) is reported as 14%.

For the origin of these results see US12427210B2, “Compounds comprising a fibroblast activation protein ligand and use thereof” (priority 2019, dated 2025).
